Like-named read-outs stand apart in the source and are kept apart here.
Tests used:
GluN1/GluN2A NMDARs [1] = target: T1, GluN1/GluN2A NMDARs (Rattus norvegicus, UniProt P35439+Q00959); test: TEVC recordings of NMDAR currents from Xenopus laevis oocytes expressing GluN1/GluN2A; assay type: cell-based; conditions: for inhibition at 10 µM: TCN 201 10 μM; for inhibition of GluN1/GluN2A NMDAR-mediated currents: antagonist 10 μM; for IC50: minimum unconstrained, read-out: IC50 (concentration giving 50% of the maximal achievable inhibition)
T1 construct: expressed in transfected cells; host or cells: Xenopus laevis oocytes injected with cRNA (GluN1:GluN2 1:1)
Method: (§1) Nomenclature of NMDA receptor subunits follows [Collingridge et al. (2009)] and [Alexander et al. (2011)]. pSP64T-based plasmid constructs containing cDNA coding for rat GluN1-1a (i.e. the splice variant that lacks exon 5, but contains exons 21 and 22), hereafter termed GluN1 and wild-type rat GluN2A receptor subunits were prepared as described by ([Chen et al., 2005]). The rat GluN2B-containing cDNA expression vector was a gift by Stephen Traynelis (Emory University, Atlanta, GA). cRNA was synthesized as runoff transcripts as previously detailed ([Chen et al., 2005], [2008]; [Erreger et al., 2007]). Fluorescence intensity in ethidium bromide-stained agarose gels was employed to confirm the fidelity and yield of synthesized cRNAs. For recombinant receptor expression, GluN1 and GluN2 cRNAs were mixed at a nominal ratio of 1:1 and diluted with nuclease-free water to 5 ng μl^−1.
(§2) Oocytes (Stage V–VI) were removed from Xenopus laevis that had been killed in accordance with current UK Home Office protocols and defolliculated by initial collagenase treatment, then manually using forceps. 23–37 nl of cRNA mix was injected into oocytes which were subsequently maintained in Barth's solution (composition in mM: NaCl 88, KCl 1, NaHCO3 2.4, MgCl2 0.82, CaCl2 0.77, Tris-Cl 15, adjusted to pH 7.35 with NaOH and supplemented with 50 IU ml^−1 penicillin, 50 μg ml^−1 streptomycin, 50 μg ml^−1 tetracycline) for 24–48 h at 19 °C to allow for receptor expression and then stored at 4 °C until required for electrophysiological measurements.
(§3) Two-electrode voltage-clamp (TEVC) recordings were made using a GeneClamp 500 amplifier (Molecular Devices, Sunnyvale, CA) at room temperature (18–21 °C) from oocytes placed in a bath that was perfused with a solution comprising (in mM): NaCl 115, KCl 2.5, HEPES 10, BaCl2 1.8, EDTA 0.01; pH 7.4 with NaOH. Note EDTA was included to chelate contaminating low nanomolar levels of Zn^2+ that potently block of GluN2A-containing NMDARs in a voltage-independent manner. […] TEVC recordings were performed at −30 or −40 mV. Currents were filtered at 10 Hz and digitized online at 100 Hz, via a Digidata 1200 A/D interface (Molecular Devices, Union City, CA, USA), using WinEDR 3.1.9 software (Strathclyde Electrophysiology Software, Strathclyde University, UK).
The concentration of TCN 201 required to inhibit 50% (IC50) of agonist-evoked responses were determined by fitting data to the equation: I=I[B]∞+((I[B]0−I[B]∞)/(1+([B]/IC50)^nH)), where I is current response, I[B]0 is predicted maximum current in the absence of antagonist, I[B]∞ is the predicted minimum current in the presence of an infinite concentration of antagonist,[B] is the concentration of the antagonist and nH represents the Hill coefficient. To obtain an overall mean IC50 value, data points were normalised to the predicted maximum, pooled and refitted with the equation, with the maximum of each curve being constrained to asymptote to 1 but with the minimum fitted as a free parameter ([Otton et al., 2011]; [Wrighton et al., 2008]). In addition we fitted data points where both the maximum and minimum were constrained (to 1 and 0, respectively). The F ratio was calculated from the following equation: F=(SSR1−SSR2)/(DF1−DF2)/SSR2/DF2, where SSR1 and SSR2 are the sum of squared residuals of the constrained and unconstrained fits respectively and DF1 and DF2 are the degrees of freedom associated with each of the two fits.

GluN1/GluN2B NMDARs = target: T2, GluN1/GluN2B NMDARs (Rattus norvegicus, UniProt P35439+Q00960); test: TEVC recordings of NMDAR currents from Xenopus laevis oocytes expressing GluN1/GluN2B; assay type: cell-based; conditions: TCN 201 10 μM, read-out: percentage inhibition of GluN1/GluN2B NMDAR-mediated currents
T2 construct: expressed in transfected cells; host or cells: Xenopus laevis oocytes injected with cRNA (GluN1:GluN2 1:1)
Method: as §1, §2
as §3, with “Currents were filtered at 10 Hz and digitized online at 100 Hz, via a Digidata 1200 A/D interface (Molecular Devices, Union City, CA, USA), using WinEDR 3.1.9 software (Strathclyde Electrophysiology Software, Strathclyde University, UK).” left out

GluN1/GluN2A NMDARs [2] = target: T1, GluN1/GluN2A NMDARs; test: Schild analysis of antagonism at GluN1/GluN2A NMDARs (TEVC, oocytes); assay type: cell-based; conditions: for dose ratio (r) for shift in glycine potency: glutamate 30 μM; for Schild plot slope (free linear regression fit): 0.3, 1 and 3 μM TCN 201 data points
Method: as §1, §2, §3
TCN 201 antagonism at the GluN1/GluN2A NMDAR was examined by the Schild method ([Arunlakshana and Schild, 1959]; [Wyllie and Chen, 2007]). Dose-ratios (r) were defined as the ratio of the concentration of agonist, in the presence of a fixed concentration of antagonist, required to evoke the same response that was obtained in the absence of the antagonist. Dose-ratios from individual oocytes were determined at low agonist concentrations by constructing a partial concentration-response curve generated in the absence of antagonist and in the presence of a series of increasing antagonist concentrations. Due to the lack of sufficient perfusion lines, the dose-ratio estimate for the higher concentrations of TCN 201 (3 and 10 μM) was determined in a separate series of experiments from those carried out for the lower two concentrations (0.3 and 1 μM). Each series of two-point concentration-response curves were plotted on a log–log scale and the slope of the line used to fit the initial (antagonist-free) two-point concentration-response curve was used to fit the remaining curves. These parallel fits were used to calculate an overall mean r value for each antagonist concentration [B], which were then used to construct a Schild plot. On a log–log scale the gradient of the line used to fit such data is predicted by the Schild equation to be unity for a competitive antagonist. […] For ‘allosteric’ antagonism at equilibrium, the Schild plot deviates from unity at higher concentrations of antagonist ([Christopoulos and Kenakin, 2002]). […]

[3] = test system: NMDAR-mediated currents in rat cortical neurones; test: Whole-cell NMDA-evoked currents in cultured cortical neurones; assay type: cell-based; conditions: TCN 201 10 μM after ifenprodil, NMDA 50 μM, glycine 3 μM
[4] = Solubility in external recording solutions; assay type: physicochemical; conditions: external recording solutions for TEVC or whole-cell patch-clamp; from 3 mM DMSO stock
Method: Glutamate, glycine and D-serine were purchased from Sigma–Aldrich (Poole, UK). TCN 201, TCN 213, NMDA, ifenprodil, picrotoxin and tetrodotoxin were purchased from Tocris Bioscience (Bristol, UK). Stock solutions (3 mM) of TCN 201 were made by dissolving the antagonist in DMSO.

GluN1/GluN2A NMDARs [5] = target: T1, GluN1/GluN2A NMDARs; design: method as in McKay et al., 2012; conditions: ref McKay et al., 2012, cited from earlier work
[6] = glutamate 30 μM, D-serine 10 μM
[7] = glutamate 30 μM, D-serine 30 μM

T1 sequence (Q00959 20-1464 limits assumed, other chains not shown): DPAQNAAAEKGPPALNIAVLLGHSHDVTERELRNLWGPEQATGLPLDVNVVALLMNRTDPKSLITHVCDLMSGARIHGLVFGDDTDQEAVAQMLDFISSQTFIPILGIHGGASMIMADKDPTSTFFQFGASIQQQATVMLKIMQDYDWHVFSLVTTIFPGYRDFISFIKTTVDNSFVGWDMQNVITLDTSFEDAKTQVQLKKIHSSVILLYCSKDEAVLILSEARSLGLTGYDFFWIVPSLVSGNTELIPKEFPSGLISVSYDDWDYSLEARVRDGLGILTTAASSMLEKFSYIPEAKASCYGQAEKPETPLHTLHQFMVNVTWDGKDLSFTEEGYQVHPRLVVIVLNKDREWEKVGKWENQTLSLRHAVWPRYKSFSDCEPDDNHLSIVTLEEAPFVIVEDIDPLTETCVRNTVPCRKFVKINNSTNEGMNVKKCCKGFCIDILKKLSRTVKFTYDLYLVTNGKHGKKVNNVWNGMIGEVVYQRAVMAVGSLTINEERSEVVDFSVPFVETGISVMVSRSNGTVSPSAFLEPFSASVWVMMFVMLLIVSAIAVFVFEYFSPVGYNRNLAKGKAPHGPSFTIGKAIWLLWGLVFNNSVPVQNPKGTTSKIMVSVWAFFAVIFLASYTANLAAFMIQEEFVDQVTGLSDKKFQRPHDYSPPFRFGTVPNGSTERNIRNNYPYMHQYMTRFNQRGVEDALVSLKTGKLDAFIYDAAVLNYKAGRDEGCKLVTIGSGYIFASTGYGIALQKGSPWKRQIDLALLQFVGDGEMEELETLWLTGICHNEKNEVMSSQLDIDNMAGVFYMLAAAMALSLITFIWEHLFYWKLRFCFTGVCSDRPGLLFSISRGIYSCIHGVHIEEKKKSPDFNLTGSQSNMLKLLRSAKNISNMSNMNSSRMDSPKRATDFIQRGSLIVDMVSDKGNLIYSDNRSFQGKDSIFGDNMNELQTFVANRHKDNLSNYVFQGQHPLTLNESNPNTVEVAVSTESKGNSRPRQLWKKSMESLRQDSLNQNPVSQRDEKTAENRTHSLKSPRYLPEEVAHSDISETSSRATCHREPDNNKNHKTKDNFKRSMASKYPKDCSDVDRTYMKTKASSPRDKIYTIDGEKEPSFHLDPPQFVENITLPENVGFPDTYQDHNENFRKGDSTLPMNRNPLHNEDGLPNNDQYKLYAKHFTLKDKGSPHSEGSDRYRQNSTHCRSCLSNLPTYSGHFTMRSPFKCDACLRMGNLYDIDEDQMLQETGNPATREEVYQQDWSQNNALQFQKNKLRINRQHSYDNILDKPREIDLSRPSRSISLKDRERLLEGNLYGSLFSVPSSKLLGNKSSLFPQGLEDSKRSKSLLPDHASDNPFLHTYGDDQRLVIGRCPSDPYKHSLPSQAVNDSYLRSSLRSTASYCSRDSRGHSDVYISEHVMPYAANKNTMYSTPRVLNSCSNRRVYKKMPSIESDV
T2 sequence (Q00960 27-1482, other chains not shown): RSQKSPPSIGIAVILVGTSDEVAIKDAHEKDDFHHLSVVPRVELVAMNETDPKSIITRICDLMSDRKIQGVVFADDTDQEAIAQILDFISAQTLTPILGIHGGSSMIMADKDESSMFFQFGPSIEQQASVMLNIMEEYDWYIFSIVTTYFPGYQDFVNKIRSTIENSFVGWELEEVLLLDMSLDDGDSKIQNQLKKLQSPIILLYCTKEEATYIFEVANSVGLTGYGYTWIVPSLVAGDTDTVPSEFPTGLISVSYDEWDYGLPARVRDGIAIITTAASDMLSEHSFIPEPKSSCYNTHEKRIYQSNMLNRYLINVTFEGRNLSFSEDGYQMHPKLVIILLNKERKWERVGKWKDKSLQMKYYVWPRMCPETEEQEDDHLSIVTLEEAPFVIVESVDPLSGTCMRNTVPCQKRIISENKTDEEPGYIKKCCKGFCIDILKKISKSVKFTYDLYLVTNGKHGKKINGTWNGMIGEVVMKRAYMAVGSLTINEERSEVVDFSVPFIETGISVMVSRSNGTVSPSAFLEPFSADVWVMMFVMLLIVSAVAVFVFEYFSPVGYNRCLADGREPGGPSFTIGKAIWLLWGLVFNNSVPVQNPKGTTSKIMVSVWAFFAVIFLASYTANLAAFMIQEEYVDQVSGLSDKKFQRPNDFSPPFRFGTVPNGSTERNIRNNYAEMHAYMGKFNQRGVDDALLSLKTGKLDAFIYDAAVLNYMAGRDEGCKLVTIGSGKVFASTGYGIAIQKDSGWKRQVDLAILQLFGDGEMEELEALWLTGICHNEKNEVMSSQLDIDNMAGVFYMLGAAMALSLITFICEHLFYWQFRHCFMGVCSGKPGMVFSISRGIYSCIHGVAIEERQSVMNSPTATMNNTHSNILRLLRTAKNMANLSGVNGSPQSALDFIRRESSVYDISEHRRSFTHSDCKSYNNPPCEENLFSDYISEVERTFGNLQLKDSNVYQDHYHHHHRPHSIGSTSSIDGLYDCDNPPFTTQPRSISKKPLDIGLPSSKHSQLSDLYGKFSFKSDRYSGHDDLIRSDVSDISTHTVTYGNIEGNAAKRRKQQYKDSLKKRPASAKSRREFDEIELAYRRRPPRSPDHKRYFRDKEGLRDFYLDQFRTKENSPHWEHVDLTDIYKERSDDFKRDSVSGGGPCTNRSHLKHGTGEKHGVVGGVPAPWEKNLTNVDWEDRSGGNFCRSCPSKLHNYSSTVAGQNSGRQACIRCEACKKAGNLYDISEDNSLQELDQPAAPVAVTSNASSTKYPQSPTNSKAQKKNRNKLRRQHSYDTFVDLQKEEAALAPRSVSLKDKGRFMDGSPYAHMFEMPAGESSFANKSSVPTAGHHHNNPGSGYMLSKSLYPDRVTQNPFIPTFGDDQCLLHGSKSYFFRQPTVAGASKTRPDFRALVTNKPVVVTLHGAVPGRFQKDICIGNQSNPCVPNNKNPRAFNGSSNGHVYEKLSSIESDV

O=C(NNC(=O)c1ccc(CNS(=O)(=O)c2ccc(F)c(Cl)c2)cc1)c1ccccc1 [TCN 201, 3-chloro-4-fluoro-N-[4-[[2-(phenylcarbonyl)hydrazino]carbonyl]benzyl]benzenesulphonamide]
inhibition at 10 µM (GluN1/GluN2A NMDARs [1]; Fig. 2b, read-out: inhibition of glutamate/glycine-evoked GluN1/GluN2A NMDAR-mediated currents): 91.2 ± 1.1% | inhibition at 10 µM (GluN1/GluN2A NMDARs [1]; data not shown, read-out: inhibition of NMDA/glycine-evoked GluN1/GluN2A NMDAR-mediated currents): 69.9 ± 4.1% | inhibition at 10 µM (GluN1/GluN2A NMDARs [1]; glutamate 3 μM, glycine 30 μM, read-out: percentage inhibition of GluN1/GluN2A NMDAR-mediated currents): 54.5 ± 3.4% | inhibition at 10 µM (GluN1/GluN2A NMDARs [1]; glutamate 10 μM, glycine 30 μM, read-out: percentage inhibition of GluN1/GluN2A NMDAR-mediated currents): 52.2 ± 3.7% | inhibition at 10 µM (GluN1/GluN2A NMDARs [1]; glutamate 30 μM, glycine 30 μM (glutamate-dependency series), read-out: percentage inhibition of GluN1/GluN2A NMDAR-mediated currents): 45.8 ± 2.8% | inhibition of GluN1/GluN2A NMDAR-mediated currents (GluN1/GluN2A NMDARs [1]; glutamate 30 μM, glycine 10 μM): 82.4 ± 1.1% | inhibition of GluN1/GluN2A NMDAR-mediated currents (GluN1/GluN2A NMDARs [1]; glutamate 30 μM, glycine 30 μM): 50.7 ± 1.1% | Hill slope (GluN1/GluN2A NMDARs [1]; glutamate 30 μM, D-serine 3 μM): 1.57 ± 0.078 | IC50 (GluN1/GluN2A NMDARs [1]; glutamate 30 μM, D-serine 3 μM): 326 ± 18 nM | Hill slope (GluN1/GluN2A NMDARs [1]; [6]): 1.33 ± 0.21 | IC50 (GluN1/GluN2A NMDARs [1]; [6]): 816 ± 231 nM | Hill slope (GluN1/GluN2A NMDARs [1]; [7]): 1.17 ± 0.07 | IC50 (GluN1/GluN2A NMDARs [1]; [7]): 1920 ± 250 nM | Hill slope (GluN1/GluN2A NMDARs [1]; glutamate 30 μM, glycine 3 μM): 1.42 ± 0.061 | IC50 (GluN1/GluN2A NMDARs [1]; glutamate 30 μM, glycine 3 μM): 446 ± 26 nM | Hill slope (GluN1/GluN2A NMDARs [1]; glutamate 30 μM, glycine 10 μM): 1.49 ± 0.21 | IC50 (GluN1/GluN2A NMDARs [1]; glutamate 30 μM, glycine 10 μM): 746 ± 133 nM | Hill slope (GluN1/GluN2A NMDARs [1]; glutamate 30 μM, glycine 30 μM): 1.17 ± 0.11 | IC50 (GluN1/GluN2A NMDARs [1]; glutamate 30 μM, glycine 30 μM): 3890 ± 1060 nM | predicted maximal inhibition (GluN1/GluN2A NMDARs [1]; saturating glycine (or D-serine), from fits with unconstrained minima): around 40% | inhibition at 10 µM (GluN1/GluN2B NMDARs; glycine 3 μM): 1.8 ± 0.6% | inhibition at 10 µM (GluN1/GluN2B NMDARs; glycine 10 μM): 3.1 ± 1% | inhibition at 10 µM (GluN1/GluN2B NMDARs; glycine 30 μM): 3.1 ± 0.8% | dose ratio (r) for shift in glycine potency (GluN1/GluN2A NMDARs [2]; 0.3 μM TCN 201): 5.19 ± 0.4 | dose ratio (r) for shift in glycine potency (GluN1/GluN2A NMDARs [2]; 1 μM TCN 201): 16.7 ± 2.1 | dose ratio (r) for shift in glycine potency (GluN1/GluN2A NMDARs [2]; 3 μM TCN 201): 41.1 ± 1.5 | dose ratio (r) for shift in glycine potency (GluN1/GluN2A NMDARs [2]; 10 μM TCN 201): 49.0 ± 2.0 | pA2 (GluN1/GluN2A NMDARs [2]; GluN1/GluN2A NMDARs, from Schild plot intercept): 7.15 | Schild plot slope (free linear regression fit) (GluN1/GluN2A NMDARs [2]; agonist D-serine): 0.87 | allosteric constant (α) (GluN1/GluN2A NMDARs [2]; agonist D-serine, modified equation): 0.0106 | Kb (GluN1/GluN2A NMDARs [2]; agonist D-serine, modified equation, all data points, read-out: allosteric KB^# (allosteric antagonist dissociation constant)): 66 nM | Kb (GluN1/GluN2A NMDARs [2]; agonist D-serine, slope constrained to unity, first three data points, read-out: equilibrium constant (KB)): 81 nM | maximum shift in the dose ratio (= 1/α) (GluN1/GluN2A NMDARs [2]; agonist glycine): around 80 fold | Schild plot slope (free linear regression fit) (GluN1/GluN2A NMDARs [2]; agonist glycine): 0.98 | TCN 201 concentration needed to achieve the maximum dose-ratio shift (GluN1/GluN2A NMDARs [2]; agonist glycine, above limit of solubility): approximately 275 μM | allosteric constant (α) (GluN1/GluN2A NMDARs [2]; agonist glycine, modified equation): 0.0123 | Kb (GluN1/GluN2A NMDARs [2]; agonist glycine, modified equation, all data points, read-out: allosteric KB^# (allosteric antagonist dissociation constant)): 56 nM | Kb (GluN1/GluN2A NMDARs [2]; agonist glycine, slope constrained to unity, first three data points, read-out: equilibrium constant (KB)): 70 nM | potency relative to TCN 213 at GluN1/GluN2A NMDARs (GluN1/GluN2A NMDARs [2]; comparison of pA2 / equilibrium constants): around 30 times | maximum shift in the dose ratio (= 1/α) (GluN1/GluN2A NMDARs [2]; glycine or D-serine as GluN1-site agonist): 80–90 fold | block of NMDAR-mediated current (percentage of the original current magnitude) ([3]; DIV 9–10 neurones): 5 ± 2% | block of NMDAR-mediated current (percentage of the original current magnitude) ([3]; DIV 15–18 neurones): 16 ± 3% | block of NMDAR-mediated current (percentage of the original current magnitude) ([3]; GluN2A-transfected DIV 9–10 neurones): 47 ± 4% | maximum usable concentration (noticeable precipitate at higher concentrations) [4]: 10 µM

O=C(CSc1nnc(NCc2ccccc2)s1)NCC1CCCCC1 [TCN 213, N-(cyclohexylmethyl)-2-[{5-[(phenylmethyl)amino]-1,3,4-thiadiazol-2-yl}thio]acetamide]
inhibition of GluN1/GluN2A NMDAR-mediated currents (GluN1/GluN2A NMDARs [1]; glutamate 30 μM, glycine 10 μM): 44.0 ± 2.2% | inhibition of GluN1/GluN2A NMDAR-mediated currents (GluN1/GluN2A NMDARs [1]; glutamate 30 μM, glycine 30 μM): 17.3 ± 1.4% | pA2 (GluN1/GluN2A NMDARs [5]; GluN1/GluN2A NMDARs): 5.69 | Kb (GluN1/GluN2A NMDARs [5]; Schild analysis, agonist glycine, read-out: equilibrium constant (KB)): 2000 nM

Reference: publication PMC3384000, “TCN 201 selectively blocks GluN2A-containing NMDARs in a GluN1 co-agonist dependent but non-competitive manner” (Neuropharmacology, 2012)
